Data taken from patent US11186567B2, “AMPA receptor potentiators” (UNIVERSITY COLLEGE CARDIFF CONSULTANTS LIMITED, priority 2017, dated 2021).

Legend:
[1] = Intrinsic clearance (CLi), human; assay type: in vitro ADME; details: 0.5 mg/mL microsomes, 2 μM test article, 2 mM NADPH, 37° C.
Procedure: (§1) For example, compounds of the invention preferably have a CLi of less than 100 μL/min/mg in rat and human microsomes. The CLi can be measured using known methods, such as those illustrated in the Examples.
(§2) The in-vitro intrinsic clearance of the compounds was measured in rat and human […] using the following assay.
(§3) 5 μL microsomes (20 mg/ml, Corning BV) diluted into 95 μL PBS (pH 7) containing 0.2% DMSO and 4 μM test article were incubated at 37° C. shaking at 1000 rpm prior the addition of 100 μL of pre-warmed 4 mM NADPH in PBS (final concentrations: 0.5 mg/mL microsomes, 2 μM test article, 0.1% DMSO and 2 mM NADPH). After mixing thoroughly the T=0 sample (40 μL) was immediately quenched into ice cold methanol containing 2 μM internal standard (Carbemazapine). Three further samples were quenched in the same way at 3, 9 and 30 min. Samples were incubated on ice for 30 min before centrifugation at 4000 rpm+ for […]. The supernatant was analysed via LCMS and the test article:carbemazapine peak area ratios calculated to determine the rate of substrate depletion.

[2] = Intrinsic clearance (CLi), rat; assay type: in vitro ADME; details: 0.5 mg/mL microsomes, 2 μM test article, 2 mM NADPH, 37° C.
Procedure: as §1, §2, §3

CLi human [1] [µL/min/mg] | CLi Rat [2] [µL/min/mg] | SMILES
71 | 878 | Cc1c(Cl)c(C(F)(F)F)nn1-c1ccc(CN2CCCC2=O)cc1 [Comparative Example, reference compound]
4.3 | 8.4 | Cc1c(CO)c(C(F)(F)F)nn1-c1ccc(CN2CCCC2=O)cc1 [Example 1, 1-[[4-[4-(Hydroxymethyl)-5-methyl-3-(trifluoromethyl)pyrazol-1-yl]phenyl]methyl]pyrrolidin-2-one]
2.6 | 3.7 | CCc1c(CO)c(C(F)(F)F)nn1-c1ccc(CN2CCCC2=O)cc1 [Example 2, 1-[[4-[5-Ethyl-4-(hydroxymethyl)-3-(trifluoromethyl)pyrazol-1-yl]phenyl]methyl]pyrrolidin-2-one]
7.9 | 2.2 | CC(C)c1c(CO)c(C(F)(F)F)nn1-c1ccc(CN2CCCC2=O)cc1 [Example 3, 1-[[4-[4-(Hydroxymethyl)-5-isopropyl-3-(trifluoromethyl)pyrazol-1-yl]phenyl]methyl]pyrrolidin-2-one]
47.4 | 87.4 | COCc1c(C)c(C(F)(F)F)nn1-c1ccc(CN2CCCC2=O)cc1 [Example 5, 1-[[4-[5-(Methoxymethyl)-4-methyl-3-(trifluoromethyl)pyrazol-1-yl]phenyl]methyl]pyrrolidin-2-one]
6.2 | 70.2 | Cc1c(C(F)(F)F)nn(-c2ccc(CN3CCCC3=O)cc2)c1C#N [Example 6, 4-Methyl-2-[4-[(2-oxopyrrolidin-1-yl)methyl]phenyl]-5-(trifluoromethyl)pyrazole-3-carbonitrile]
31.1 | 37.7 | Cc1c(C(F)(F)F)nn(-c2ccc(CN3CCCC3=O)cc2)c1C(C)O (centres unmarked) [Example 7, 1-[[4-[5-(1-Hydroxyethyl)-4-methyl-3-(trifluoromethyl)pyrazol-1-yl]phenyl]methyl]pyrrolidin-2-one]
